Measurements from US20230382869A1, “Phenyl-3,4-dihydroisoquinolin-2(1h)-yl-ethan-1-one derivatives as dopamine d1receptor positive allosteric modulators” (Eli Lilly and Company, priority 2020, published 2023).
Where two headings read alike, the source gives them in different places.

Assays:
[1] = Plasma and Brain Levels after oral dosing; assay type: in vivo, mouse; details: for Kp uu at 1 h: ratio Cu,brain vs Cu,plasma
Experimental: (§1) Example 7, 2-(2-chloro-6-fluoro-phenyl)-1-[(1S,3R)-6-fluoro-3-(hydroxymethyl)-5-(3-hydroxy-3-methyl-butyl)-1-methyl-3,4-dihydro-1H-isoquinolin-2-yl]ethenone, was orally dosed to male mouse from 3 mg/kg to 60 mg/kg in fed condition, and the plasma and brain concentration was determined 1 hr post-dose. The fraction unbound of the compound was determined in vitro as described previously (Zamek-Gliszczynski M J, et al., Validation of 96-well equilibrium dialysis with non-radiolabeled drug for definitive measurement of protein binding and application to clinical development of highly-bound drugs, J. Pharm. Sci. (2011) 100: 2498-2507). The ratio (Kpuu) of unbound brain concentration (Cu, brain) vs. unbound plasma concertation (Cu, plasma) was determined as described previously (Raub T J, et al., Brain Exposure of Two Selective Dual CDK4 and CDK6 Inhibitors and the Antitumor Activity of CDK4 and CDK6 Inhibition in Combination with Temozolomide in an Intracranial Glioblastoma Xenograft. Drug Metab. Dispos. (2015) 43:1360-71). The data presented below in Table 3 for Example 7 are averages from 3 animals at each dose. “Con.” refers to concentration.

CYP3A4 = CYP3A4 (Homo sapiens (Human), UniProt P08684); assay: Calculation of fraction of compound cleared through CYP3A4 metabolism (fmCYP3A4); details: fmCYP × fm3A4_RCP (worst-case fm3A4_RCP = 1)
Excerpt: The fraction of overall clearance of a drug via oxidative metabolism by the cytochrome P450 (CYP) is an important indication for potential victim drug-drug interaction mediated adverse effects. (see generally Ogu, Chris C., and Maxa, Jan L., Drug interactions due to cytochrome P450, BUMC Proceedings 2000; 13:421-423.) The greater fraction of overall clearance for a given drug that goes though a CYP oxidation pathway, particularly exclusively through a single CYP, as for example CYP3A4, the greater the potential that the drug may be found susceptible to undesired victim drug-drug interactions when used in therapy. To determine the fmCYP3A4 (the fraction of metabolism via CYP3A4), the fraction of P450-mediated oxidation, (fmCYP) is first determined in human hepatocytes. The relative contribution of CYP3A4 mediated oxidation (fmCYP3A4_RCP) over other P450 s is then determined using a recombinant CYP phenotyping assay (RCP). The fmCYP3A4 is calculated using the following equation:
fmCYP3A4=fmCYP×fmCYP3A4_RCP
The renal and biliary excretion of test compounds is tested in bile-duct cannulated dogs essentially according to Burkey J L, et al. (2002) Disposition of LY333531, a selective protein kinase C beta inhibitor, in the Fischer 344 rat and beagle dog. Xenobiotica 32:1045-1052. […] The fraction of compound cleared through CYP3A4 metabolism is calculated using the equation below: […]

[2] = Fraction escaping first-pass gut metabolism (FG); design: species or system human; details: calculated
Excerpt: The estimation of fraction metabolized in the gut may be determined using the following equation found in Yang J, et al. (2007) Prediction of intestinal first-pass drug metabolism. Curr Drug Metab 8:676-684:
FG=Qgut/(Qgut+fugut×Clint CYP3A,gut)
Qgut=Qvilli×Clperm/(Qvilli+Clperm)
Clperm═Papp×Intestinal surface area
Clint,CYP3A,gut=CLint,CYP3A,liver/fumic×microsomal protein in gut (mg)×0.4 (in house calculation) Where Qgut is a hybrid flow term dependent upon the villous blood flow and permeability of the compound fugut is the fraction of drug unbound in the enterocyte
Qvilli is villous blood flow
Clperm is the clearance term defining permeability through the enterocyte
Papp is the passive permeability measured in MDCKII cell line in house fumic is the fraction of drug unbound in human liver microsomes
Human intestine parameters are from Yang et al., 2007, and Gertz M, et al. (2010) Prediction of human intestinal first-pass metabolism of 25 CYP3A substrates from in vitro clearance and permeability data. Drug Metab Dispos 38:1147-1158.

[3] = Fraction unbound in vitro (equilibrium dialysis); assay type: in vitro ADME
Experimental: as §1

[4] = Passive permeability in MDCKII cell line (Papp); assay type: in vitro ADME; details: dog, MDCK
Excerpt: Papp is the passive permeability measured in MDCKII cell line in house

Cytochrome P450 (CYP) = assay: Fraction of CYP-mediated oxidative metabolism (fmCYP) in human hepatocytes with/without ABT; assay type: in vitro ADME
Experimental: The relative contribution of P450 s in the overall metabolism of a compound was determined from the clearance of the drug in an assay using human hepatocytes in the presence and absence of the pan P450 inhibitor 1-aminobenzotriazole (ABT). The intrinsic clearance was determined in cryopreserved human hepatocytes essentially as described in McGinnity D F, et al. (2004) Evaluation of fresh and cryopreserved hepatocytes as in vitro drug metabolism tools for the prediction of metabolic clearance. Drug Metab Dispos 32:1247-1253. Generally, the assay incubations contain 0.3 μM test compound and 10^6 cells/mL hepatocytes, with or without 0.5 hr. pre-incubation with ABT (1 mM). Parent compound loss is measured by LC/MS after 15, 30, 60 and 90 min. incubation. The intrinsic clearance (μL/min/10^6 cells) is calculated using the following equation for both ±ABT. The fraction of metabolism by CYP is the percentage of inhibition by ABT.
CLint=−kdep×incubation volume/10^6 cells,
in which the kdep, the substrate depletion constant (min^−1), is the slope determined using linear regression from the log transformed % remaining on the y-axis vs time on the x-axis (min^−1).

[5] = In vivo tolerability in normal rats; details: broad dose range

With `C[C@H]1c2ccc(F)c(CCC(C)(C)O)c2C[C@H](CO)N1C(=O)Cc1c(F)cccc1Cl` [Example 7, 2-(2-chloro-6-fluoro-phenyl)-1-[(1S,3R)-6-fluoro-3-(hydroxymethyl)-5-(3-hydroxy-3-methyl-butyl)-1-methyl-3,4-dihydro-1H-isoquinolin-2-yl]ethanone] as the molecule, how does the concentration at 1 h ([1]; brain, 3 mg/kg oral, 1 hr post-dose, male mouse, fed, read-out: Brain con.) read?
The concentration at 1 h was 18 nM.

What about the concentration at 1 h ([1]; brain, 6 mg/kg oral, 1 hr post-dose, male mouse, fed, read-out: Brain con.) of the same molecule?
Its concentration at 1 h is 45.1 nM.

And the concentration at 1 h ([1]; brain, 10 mg/kg oral, 1 hr post-dose, male mouse, fed, read-out: Brain con.)?
Its concentration at 1 h is 84.9 nM.

What about the concentration at 1 h ([1]; brain, 30 mg/kg oral, 1 hr post-dose, male mouse, fed, read-out: Brain con.) of the same molecule?
Its concentration at 1 h is 557 nM.

And the concentration at 1 h ([1]; brain, 60 mg/kg oral, 1 hr post-dose, male mouse, fed, read-out: Brain con.)?
The concentration at 1 h was 1290 nM.

And the Kp uu at 1 h ([1]; male, mouse, 3 mg/kg oral, 1 hr)?
Its Kp uu at 1 h is 0.126.

What about the Kp uu at 1 h ([1]; male, mouse, 6 mg/kg oral, 1 hr) of the same molecule?
Its Kp uu at 1 h is 0.143.

And the Kp uu at 1 h ([1]; male, mouse, 10 mg/kg oral, 1 hr)?
Its Kp uu at 1 h is 0.122.

What about the Kp uu at 1 h ([1]; male, mouse, 30 mg/kg oral, 1 hr) of the same molecule?
Its Kp uu at 1 h is 0.194.

What about the Kp uu at 1 h ([1]; male, mouse, 60 mg/kg oral, 1 hr) of the same molecule?
The Kp uu at 1 h was 0.248.

What about the concentration at 1 h ([1]; male, mouse, unbound brain concentration, 3 mg/kg oral, 1 hr, read-out: Cu, brain) of the same molecule?
Its concentration at 1 h is 0.448 nM.

And the concentration at 1 h ([1]; male, mouse, unbound brain concentration, 6 mg/kg oral, 1 hr, read-out: Cu, brain)?
Its concentration at 1 h is 1.12 nM.

What about the concentration at 1 h ([1]; male, mouse, unbound brain concentration, 10 mg/kg oral, 1 hr, read-out: Cu, brain) of the same molecule?
Its concentration at 1 h is 2.11 nM.

What about the concentration at 1 h ([1]; male, mouse, unbound brain concentration, 30 mg/kg oral, 1 hr, read-out: Cu, brain) of the same molecule?
Its concentration at 1 h is 13.9 nM.

And the concentration at 1 h ([1]; male, mouse, unbound brain concentration, 60 mg/kg oral, 1 hr, read-out: Cu, brain)?
Its concentration at 1 h is 32.1 nM.

And the concentration at 1 h ([1]; male, mouse, unbound plasma concentration, 3 mg/kg oral, 1 hr, read-out: Cu, plasma)?
Its concentration at 1 h is 4.97 nM.

And the concentration at 1 h ([1]; male, mouse, unbound plasma concentration, 6 mg/kg oral, 1 hr, read-out: Cu, plasma)?
Its concentration at 1 h is 9.62 nM.

And the concentration at 1 h ([1]; male, mouse, unbound plasma concentration, 10 mg/kg oral, 1 hr, read-out: Cu, plasma)?
Its concentration at 1 h is 17.1 nM.

What about the concentration at 1 h ([1]; male, mouse, unbound plasma concentration, 30 mg/kg oral, 1 hr, read-out: Cu, plasma) of the same molecule?
The concentration at 1 h was 70.1 nM.

What about the concentration at 1 h ([1]; male, mouse, unbound plasma concentration, 60 mg/kg oral, 1 hr, read-out: Cu, plasma) of the same molecule?
Its concentration at 1 h is 128 nM.

And the concentration at 1 h ([1]; plasma, 3 mg/kg oral, 1 hr post-dose, male mouse, fed, read-out: Plasma con.)?
The concentration at 1 h was 353 nM.

What about the concentration at 1 h ([1]; plasma, 6 mg/kg oral, 1 hr post-dose, male mouse, fed, read-out: Plasma con.) of the same molecule?
The concentration at 1 h was 682 nM.

And the concentration at 1 h ([1]; plasma, 10 mg/kg oral, 1 hr post-dose, male mouse, fed, read-out: Plasma con.)?
Its concentration at 1 h is 1210 nM.

What about the concentration at 1 h ([1]; plasma, 30 mg/kg oral, 1 hr post-dose, male mouse, fed, read-out: Plasma con.) of the same molecule?
The concentration at 1 h was 4980 nM.

And the concentration at 1 h ([1]; plasma, 60 mg/kg oral, 1 hr post-dose, male mouse, fed, read-out: Plasma con.)?
The concentration at 1 h was 9080 nM.

And the fmCYP3A4 (CYP3A4)?
Its fmCYP3A4 is 0.322.

What about the FG [2] of the same molecule?
The FG was 0.78.

And the fraction unbound ([3]; fraction unbound in brain, read-out: fu, brain)?
Its fraction unbound is 0.0249.

What about the fraction unbound ([3]; fraction unbound in plasma, read-out: fu, plasma) of the same molecule?
The fraction unbound was 0.0141.

What about the Papp [4] of the same molecule?
The Papp was 37.9 ×10⁻⁶ cm/s.

What about the “route of metabolism in hepatocytes” value (Cytochrome P450 (CYP)) of the same molecule?
The value was “primarily metabolized through non-oxidative processes”.

What about the fmCYP (Cytochrome P450 (CYP); CLint ±ABT (1 mM), 0.3 μM compound) of the same molecule?
Its fmCYP is 0.322.

What about the “fractions metabolized by CYPs” value (Cytochrome P450 (CYP); ±ABT) of the same molecule?
Its value is 32.3%.

What about the “tolerability / toxicity in vivo” value [5] of the same molecule?
Its value is “generally well tolerated”.
